Results published in PMC6269737, “Effect of Honokiol on Cytochrome P450 and UDP-Glucuronosyltransferase Enzyme Activities in Human Liver Microsomes” (Molecules, 2013).

Tests used:
CYP3A4 = CYP3A4 (Homo sapiens, UniProt P08684); assay: biochemical; settings: IC50 (μM) of honokiol, Midazolam 1'-hydroxylation
Protocol: The inhibitory potential (IC50 values) of honokiol on CYP activities was evaluated in pooled human liver microsomes using liquid chromatography-tandem mass spectrometry (LC-MS/MS). […] Honokiol was dissolved in acetonitrile. […] […] The reaction was then stopped by placement of the tubes on ice and adding 100 μL of ice-cold methanol containing internal standards (^13C2, ^15N-acetaminophen for acetaminophen and N-deethylamodiaquine, and d9-1-hydroxybufuralol for 4-hydroxydiclofenac, 4-hydroxybupropion, 7-hydroxycoumarin, 4-hydroxymephenytoin, 1'-hydroxybufuralol, and 1'-hydroxymidazolam). The incubation mixtures were then centrifuged at 13,000 × g for 4 min. All incubations were performed in triplicate, and average values were used.
The reaction was initiated by the addition of the cocktail containing seven CYP probe substrates and bupropion.
The metabolites formed from the seven CYP cocktail substrates were simultaneously determined according to our previously described LC-MS/MS method with minor modification; the concentration of 4-hydroxybupropion for CYP2B6 activity was quantified separately by LC-MS/MS. A tandem mass spectrometer (TSQ Quantum Access, Thermo Scientific, San Jose, CA, USA) coupled with a Nanospace SI-2 LC system (Tokyo, Japan) was used. […] Quantification was performed by selected reaction monitoring (SRM) of [M+H]^+ ions and the related product ions for each metabolite. […]

UGT1A9 = molecular target: T1, UGT1A9 (Homo sapiens, UniProt O60656); assay: UGT1A9-catalyzed propofol glucuronidation inhibition in pooled human liver microsomes; format: in vitro ADME; settings: pooled HLM (H161)
T1 sequence (O60656 26-530): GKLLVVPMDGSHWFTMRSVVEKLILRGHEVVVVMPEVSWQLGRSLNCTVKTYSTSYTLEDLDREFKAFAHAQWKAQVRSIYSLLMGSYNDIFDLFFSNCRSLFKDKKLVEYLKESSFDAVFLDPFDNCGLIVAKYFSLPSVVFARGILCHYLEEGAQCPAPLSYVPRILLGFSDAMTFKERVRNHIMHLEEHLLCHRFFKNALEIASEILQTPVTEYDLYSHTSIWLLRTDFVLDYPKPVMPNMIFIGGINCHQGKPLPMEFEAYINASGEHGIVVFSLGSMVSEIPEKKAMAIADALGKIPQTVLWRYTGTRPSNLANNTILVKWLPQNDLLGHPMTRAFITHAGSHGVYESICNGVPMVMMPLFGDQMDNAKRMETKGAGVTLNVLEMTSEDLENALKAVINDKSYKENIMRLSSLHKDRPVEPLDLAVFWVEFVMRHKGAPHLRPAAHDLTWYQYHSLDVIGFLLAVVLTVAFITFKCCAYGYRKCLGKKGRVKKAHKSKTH
Protocol: (§1) The inhibitory potency (IC50 value) of honokiol on UGT1A1-catalyzed 17β-estradiol 3-glucuronidation, UGT1A4-catalyzed trifluoperazine glucuronidation, UGT1A9-catalyzed propofol glucuronidation, and UGT2B7-catalyzed azidothymidine glucuronidation activities was determined in pooled human liver microsomes by LC-MS/MS [48]. […] Reactions were initiated by the addition of UDPGA (final concentration, 5 mM), and incubations were carried out at 37 °C in a shaking water bath for 30 min. Reactions were terminated by adding 100 μL of ice-cold methanol containing an internal standard (500 ng/mL ezetimibe for 17β-estradiol 3-glucuronide and propofol glucuronide; 30 ng/mL meloxicam for trifluoperazine glucuronide and azidothymidine glucuronide). The incubation mixtures were then centrifuged at 13,000 × g for 4 min, followed by dilution of 30 μL of the supernatant with 70 μL of water. An aliquot (5 μL) was injected onto the LC-MS/MS. All incubations were performed in triplicate and the mean values were used. Glucuronides produced from UGT isoform-specific substrates were determined by LC-MS/MS [49].
The incubation mixtures were then centrifuged at 13,000 × g for 4 min, after which 30 μL of the supernatant was diluted with 70 μL of water. Aliquots (5 μL) were then analyzed by LC-MS/MS.
(§2) The apparent kinetic parameters for inhibitory potential (Ki values) were estimated from the fitted curves using Enzyme Kinetics Ver. 1.1 software (Systat Software Inc.).

UGT2B7 = molecular target: T2, UGT2B7 (Homo sapiens, UniProt P16662); assay: UGT2B7-catalyzed azidothymidine glucuronidation inhibition in pooled human liver microsomes; format: in vitro ADME; settings: 100 μM azidothymidine, pooled HLM (H161)
T2 sequence (P16662 24-529): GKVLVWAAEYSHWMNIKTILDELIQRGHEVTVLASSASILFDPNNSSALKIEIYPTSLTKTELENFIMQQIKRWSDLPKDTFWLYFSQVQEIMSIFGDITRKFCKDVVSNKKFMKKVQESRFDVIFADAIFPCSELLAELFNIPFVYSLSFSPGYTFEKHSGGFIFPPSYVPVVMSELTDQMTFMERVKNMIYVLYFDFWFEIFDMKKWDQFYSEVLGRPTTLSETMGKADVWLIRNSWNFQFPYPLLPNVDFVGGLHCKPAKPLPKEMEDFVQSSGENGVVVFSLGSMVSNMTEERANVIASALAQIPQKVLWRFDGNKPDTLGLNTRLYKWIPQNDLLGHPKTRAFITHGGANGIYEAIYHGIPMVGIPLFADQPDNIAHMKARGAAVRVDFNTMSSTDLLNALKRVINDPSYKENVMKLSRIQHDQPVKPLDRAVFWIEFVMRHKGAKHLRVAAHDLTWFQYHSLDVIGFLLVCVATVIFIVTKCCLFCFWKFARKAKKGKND
Protocol: as §1, §2

Chain of CYP3A4 (P08684 2-503): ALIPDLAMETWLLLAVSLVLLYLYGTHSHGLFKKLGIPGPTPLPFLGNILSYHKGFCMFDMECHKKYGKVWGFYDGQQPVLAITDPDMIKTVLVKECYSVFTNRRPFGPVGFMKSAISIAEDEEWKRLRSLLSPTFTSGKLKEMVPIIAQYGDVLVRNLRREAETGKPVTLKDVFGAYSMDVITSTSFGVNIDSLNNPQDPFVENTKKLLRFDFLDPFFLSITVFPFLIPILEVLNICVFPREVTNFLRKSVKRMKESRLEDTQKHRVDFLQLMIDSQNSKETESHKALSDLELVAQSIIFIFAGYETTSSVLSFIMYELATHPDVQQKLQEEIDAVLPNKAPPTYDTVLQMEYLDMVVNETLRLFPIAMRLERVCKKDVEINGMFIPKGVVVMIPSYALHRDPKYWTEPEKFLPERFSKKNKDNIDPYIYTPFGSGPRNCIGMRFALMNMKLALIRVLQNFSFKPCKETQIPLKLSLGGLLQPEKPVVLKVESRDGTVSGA

- IC50 (CYP3A4; no preincubation, 2.5 μM midazolam, pooled HLM (H161)): 97.3 µM
- IC50 (CYP3A4; with preincubation, 30 min preincubation with NADPH): 45.8 µM
- Ki (UGT1A9; Propofol glucuronidation, 5–40 μM propofol): 0.3 µM
- Inhibition mode (UGT1A9; Propofol glucuronidation): competitive
- IC50 at 30 min (UGT1A9; human, pooled human liver microsomes, pH 7.4, probe propofol (10 μM), propofol glucuronidation, 10 μM propofol): 0.96 µM
- IC50 (UGT1A9; propofol glucuronidation, 10 μM propofol): 0.98 µM
- IC50 (UGT2B7): 36.4 µM
SMILES: C=CCc1ccc(O)c(-c2ccc(O)c(CC=C)c2)c1 [honokiol, 2-(4-hydroxy-3-prop-2-enyl-phenyl)-4-prop-2-enyl-phenol]
